{"source": "patent US8309726B2", "about": "“Substituted piperazine compounds of formula 8” (Council of Scientific & Industrial Research, priority 2007, dated 2012)", "key": {"[1]": {"system": "calf thymus (CT) DNA", "assay": "Thermal denaturation studies with duplex-form calf thymus DNA", "type": "binding", "procedure": "Compounds were subjected to thermal denaturation studies with duplex-form calf thymus DNA (CT-DNA) using an adaptation of a reported procedure. Working solutions in aqueous buffer (10 mM NaH2PO4/Na2HPO4, 1 mM Na2EDTA, pH 7.00+/−0.01) containing CT-DNA (100 μM in phosphate) and the PBD (20 μM) were prepared by addition of concentrated ANCD solutions in DMSO to obtain a fixed [ANCD]/[DNA] molar ratio of 1:5. The DNA-ANCD solutions were incubated at 37° C. for 0, 18, and 36 h prior to analysis. Samples were monitored at 260 nm using a Beckman DU-7400 spectrophotometer fitted with high performance temperature controller, and heating was applied at 1° C. min^−1 in the 40-90° C. range. DNA helix coil transition temperatures (Tm) were obtained from the maxima in the (dA260)/dT derivative plots. Results are given as the mean+/−standard deviation from three determinations and are corrected for the effects of DMSO co-solvent using a linear correction term. Drug-induced alterations in DNA melting behaviour are given by: ΔTm=Tm (DNA+ANCD)−Tm (DNA alone), where the Tm value for the ANCD-free CT-DNA is 69.0+/−0.01."}, "[2]": {"system": "human tumour cell lines", "assay": "In vitro anticancer activity against sixty human tumour cell lines (NCI, SRB assay)", "type": "cell-based", "procedure": "(§1) In vitro evaluation of cytotoxic activity: Compounds were evaluated for in vitro anticancer activity against sixty human tumour cells derived from nine cancer types (colon, prostate, oral, lung, cervix and breast cancer) as shown in (Table 1, 2 and 3) 8b, 8c, 8d, and 8e, were evaluated for in vitro anticancer activity against sixty human tumour cells derived from nine cancer types (leukemia, non-small-cell lung, colon, CNS, melanoma, ovarian, prostate, and breast cancer) as shown in (Table 2 and 3). For the compound, dose response curves for each cell line were measured at a minimum of five concentrations at 10 fold dilutions. A protocol of 48 h continuous drug exposure was used and a sulforhodamine B (SRB) protein assay was used to estimate cell viability or growth. The concentration causing 50% cell growth inhibition (GI50), total cell growth inhibition (TGI 0% growth) and 50% cell death (LC50, −50% growth) compared with the control was calculated. The mean graph midpoint values of log10 TGI and log10 LC50 as well as log10 GI50 for 8a, 8b, 8c, 8d, and 8e, are listed in (Table 2 and 3).\n(§2) Each cancer type represents the average of six to nine different cancer cell lines. The compounds 8a, 8b, 8c, 8d, 8e and 8f were evaluated for in vitro anticancer activity against sixty human tumour cells derived from nine cancer types (leukemia, colon, prostate, renal melanoma CNS, lung, cervix and breast cancer) as shown in Table 3. Compounds 8b, 8c, 8d and 8e show promising cytotoxicity against some cancer cell lines (Table 2). Compounds 8b, 8c, 8d and 8e have been evaluated for their in vitro cytotoxicity in selected human cancer cell lines of colon (Colo205), lung (Hop-62), cervix (SiHa), prostate (DU145, PC3), oral (DWD, HT1080), and breast (MCF7, Zr-75-1) origin. A protocol of 48 h continuous drug exposure has been used and an […] has been used to estimate cell viability or growth. The results are expressed as percent of cell growth determined relative to that of untreated control cells. […] In the breast cancer panel, the growth of BT-549, MCF-7 cell lines are 10.3, and 17.6. In the prostate cancer panel, the growth of DU-145, PC-3 cell lines are 11.3, and 19.2. The GI50 values of compound In the CNS cancer panel, the growth of SF-539, SNB-75 cell lines are […]. […] In vitro cytotoxicity of compounds 8a, and 8b in selected cancer cell lines has been illustrated in Table 3. The average GI50 values for each cancer panel of compounds 8b, 8c, 8d and 8e have been illustrated in above Table 2 and 3"}, "[3]": {"system": "Leukemia cancer cell lines", "assay": "In vitro cytotoxicity, leukemia panel", "type": "cell-based", "settings": "Homo sapiens, average of six to nine different cancer cell lines, 48 h, SRB, read-out: Log GI50 (concentration in mol/L causing 50% growth inhibition) (converted)", "procedure": "as §1, §2"}, "[4]": {"system": "Nonsmall-cell-lung cancer cell lines", "assay": "In vitro cytotoxicity, non-small-cell lung panel", "type": "cell-based", "settings": "Homo sapiens, average of six to nine different cancer cell lines, 48 h, SRB, read-out: Log GI50 (concentration in mol/L causing 50% growth inhibition) (converted)", "procedure": "as §1, §2"}, "[5]": {"system": "Colon cancer cell lines", "assay": "In vitro cytotoxicity, colon panel", "type": "cell-based", "settings": "Homo sapiens, average of six to nine different cancer cell lines, 48 h, SRB, read-out: Log GI50 (concentration in mol/L causing 50% growth inhibition) (converted)", "procedure": "as §1, §2"}, "[6]": {"system": "CNS cancer cell lines", "assay": "In vitro cytotoxicity, CNS panel", "type": "cell-based", "settings": "Homo sapiens, average of six to nine different cancer cell lines, 48 h, SRB, read-out: Log GI50 (concentration in mol/L causing 50% growth inhibition) (converted)", "procedure": "as §1, §2"}, "[7]": {"system": "Melanoma cancer cell lines", "assay": "In vitro cytotoxicity, melanoma panel", "type": "cell-based", "settings": "Homo sapiens, average of six to nine different cancer cell lines, 48 h, SRB, read-out: Log GI50 (concentration in mol/L causing 50% growth inhibition) (converted)", "procedure": "as §1, §2"}, "[8]": {"system": "Ovarian cancer cell lines", "assay": "In vitro cytotoxicity, ovarian panel", "type": "cell-based", "settings": "Homo sapiens, average of six to nine different cancer cell lines, 48 h, SRB, read-out: Log GI50 (concentration in mol/L causing 50% growth inhibition) (converted)", "procedure": "as §1, §2"}, "[9]": {"system": "Renal cancer cell lines", "assay": "In vitro cytotoxicity, renal panel", "type": "cell-based", "settings": "Homo sapiens, average of six to nine different cancer cell lines, 48 h, SRB, read-out: Log GI50 (concentration in mol/L causing 50% growth inhibition) (converted)", "procedure": "as §1, §2"}, "[10]": {"system": "Prostate cancer cell lines", "assay": "In vitro cytotoxicity, prostate panel", "type": "cell-based", "settings": "Homo sapiens, average of six to nine different cancer cell lines, 48 h, SRB, read-out: Log GI50 (concentration in mol/L causing 50% growth inhibition) (converted)", "procedure": "as §1, §2"}, "[11]": {"system": "Breast cancer cell lines", "assay": "In vitro cytotoxicity, breast panel", "type": "cell-based", "settings": "Homo sapiens, average of six to nine different cancer cell lines, 48 h, SRB, read-out: Log GI50 (concentration in mol/L causing 50% growth inhibition) (converted)", "procedure": "as §1, §2"}, "[12]": {"system": "EKVX cell line (non-small cell lung cancer)", "assay": "In vitro cytotoxicity, EKVX", "type": "cell-based", "settings": "Homo sapiens, non-small cell lung cancer panel", "procedure": "(§3) In vitro evaluation of cytotoxic activity: Compounds were evaluated for in vitro anticancer activity against sixty human tumour cells derived from nine cancer types (colon, prostate, oral, lung, cervix and breast cancer) as shown in (Table 1, 2 and 3) 8b, 8c, 8d, and 8e, were evaluated for in vitro anticancer activity against sixty human tumour cells derived from nine cancer types (leukemia, non-small-cell lung, colon, CNS, melanoma, ovarian, prostate, and breast cancer) as shown in (Table 2 and 3). For the compound, dose response curves for each cell line were measured at a minimum of five concentrations at 10 fold dilutions. […]\n(§4) Each cancer type represents the average of six to nine different cancer cell lines. The compounds 8a, 8b, 8c, 8d, 8e and 8f were evaluated for in vitro anticancer activity against sixty human tumour cells derived from nine cancer types (leukemia, colon, prostate, renal melanoma CNS, lung, cervix and breast cancer) as shown in Table 3. […] Compounds 8b, 8c, 8d and 8e have been evaluated for their in vitro cytotoxicity in selected human cancer cell lines of colon (Colo205), lung (Hop-62), cervix (SiHa), prostate (DU145, PC3), oral (DWD, HT1080), and breast (MCF7, Zr-75-1) origin. […] The results are expressed as percent of cell growth determined relative to that of untreated control cells. […]"}, "[13]": {"system": "NCI-H226 cell line (non-small cell lung cancer)", "assay": "In vitro cytotoxicity, NCI-H226", "type": "cell-based", "settings": "Homo sapiens; NCI-H226, non-small cell lung cancer panel", "procedure": "as §3, §4"}, "[14]": {"system": "HL-60 (TB) (leukemia)", "assay": "In vitro cytotoxicity, HL-60 (TB)", "type": "cell-based", "settings": "Homo sapiens, leukemia panel", "procedure": "as §3, §4"}, "[15]": {"system": "BT-549 cell line (breast cancer)", "assay": "In vitro cytotoxicity, BT-549", "type": "cell-based", "settings": "Homo sapiens; BT-549, breast cancer panel; unit inferred; read-out: growth (GI50)", "procedure": "as §3, §4"}, "[16]": {"system": "MCF-7 cell line (breast cancer)", "assay": "In vitro cytotoxicity, MCF-7", "type": "cell-based", "settings": "Homo sapiens, MCF7; MCF-7, breast cancer panel; unit inferred; read-out: growth (GI50)", "procedure": "as §3, §4"}, "[17]": {"system": "DU-145 cell line (prostate cancer)", "assay": "In vitro cytotoxicity, DU-145", "type": "cell-based", "settings": "Homo sapiens; DU-145, prostate cancer panel; unit inferred; read-out: growth (GI50)", "procedure": "as §3, §4"}, "[18]": {"system": "PC-3 cell line (prostate cancer)", "assay": "In vitro cytotoxicity, PC-3", "type": "cell-based", "settings": "Homo sapiens; PC-3, prostate cancer panel; unit inferred; read-out: growth (GI50)", "procedure": "as §3, §4"}}}
{"molecule": "COc1cc(C(=O)N2CCN(c3ccccn3)CC2)c(N)cc1OCc1ccccc1", "note": "[Compound 8b, [2-amino-4-(benzyloxy)-5-methoxyphenyl][4-(2-pyridyl)piperazino]methanone]", "values": [{"measurement": "ΔTm (° C.) after incubation at 37° C. for 0 h", "setting": "[1]; [ANCD]/[DNA] molar ratio 1:5, CT-DNA 100 μM, ligand 20 μM, sodium phosphate buffer pH 7.00, 0 h at 37° C.", "value": 1.5, "unit": "°C"}, {"measurement": "ΔTm (° C.) after incubation at 37° C. for 18 h", "setting": "[1]; [ANCD]/[DNA] molar ratio 1:5, CT-DNA 100 μM, ligand 20 μM, sodium phosphate buffer pH 7.00, 18 h at 37° C.", "value": 2.1, "unit": "°C"}, {"measurement": "ΔTm (° C.) after incubation at 37° C. for 36 h", "setting": "[1]; [ANCD]/[DNA] molar ratio 1:5, CT-DNA 100 μM, ligand 20 μM, sodium phosphate buffer pH 7.00, 36 h at 37° C.", "value": 2.6, "unit": "°C"}, {"measurement": "Course of ΔTm over incubation at 0 hr, 18 hr and 36 hr", "setting": "[1]; incubation at 37° C., [ANCD]/[DNA] 1:5", "value": "gradually increased"}, {"measurement": "Log10LC50 mean graph midpoint (MG_MID)", "setting": "[2]; 50% cell death, 48 h continuous drug exposure, SRB assay", "value": "−4.05"}, {"measurement": "Log10GI50 mean graph midpoint (MG_MID)", "setting": "[2]; 50% cell growth inhibition, 48 h continuous drug exposure, SRB assay", "value": "−5.62"}, {"measurement": "GI50", "setting": "[2]; Homo sapiens, fifty-five cell lines in nine cancer cell panels", "value": "< 10", "unit": "µM"}, {"measurement": "antiproliferative activity", "setting": "[2]; against most of the tested cell lines", "value": "nanomolar to low micromolar concentrations"}, {"measurement": "Log10TGI50 mean graph midpoint (MG_MID)", "setting": "[2]; total cell growth inhibition, 48 h continuous drug exposure, SRB assay", "value": "−5.12"}, {"measurement": "GI50", "setting": "[3]", "value": 5.5, "unit": "µM"}, {"measurement": "GI50", "setting": "[4]", "value": 4.57, "unit": "µM"}, {"measurement": "GI50", "setting": "[5]", "value": 6.76, "unit": "µM"}, {"measurement": "GI50", "setting": "[6]", "value": 5.89, "unit": "µM"}, {"measurement": "GI50", "setting": "[7]", "value": 1.78, "unit": "µM"}, {"measurement": "GI50", "setting": "[8]", "value": 5.75, "unit": "µM"}, {"measurement": "GI50", "setting": "[9]", "value": 5.62, "unit": "µM"}, {"measurement": "GI50", "setting": "[10]", "value": 16.6, "unit": "µM"}, {"measurement": "GI50", "setting": "[11]", "value": 6.76, "unit": "µM"}, {"measurement": "GI50", "setting": "[12]", "value": 12.4, "unit": "µM"}, {"measurement": "GI50", "setting": "[13]", "value": 13.6, "unit": "µM"}, {"measurement": "GI50", "setting": "[14]", "value": 16.5, "unit": "µM"}, {"measurement": "GI50", "setting": "[15]", "value": 10.3, "unit": "µM"}, {"measurement": "GI50", "setting": "[16]", "value": 17.6, "unit": "µM"}, {"measurement": "GI50", "setting": "[17]", "value": 11.3, "unit": "µM"}, {"measurement": "GI50", "setting": "[18]", "value": 19.2, "unit": "µM"}]}
